Source: ChEMBL document CHEMBL1909046, “DrugMatrix in vitro pharmacology data”
pIC50, pKi: −log10 of the molar value.

system: not listed separately; experiment: DRUGMATRIX: Purinergic P2X radioligand binding (ligand: [3H] alpha, beta-Methylene-ATP); assay type: cell membranes, Oryctolagus cuniculus, New Zealand albino, Urinary bladder, Membrane; settings: Not Active = under 50% inhibition at 10 µM

Row | Compound | IC50 | Ki
1 | COc1cc2c3cc1Oc1cc(ccc1O)C[C@@H]1c4c(cc(OC)c(O)c4Oc4ccc(cc4)C[C@@H]3N(C)CC2)CC[N+]1(C)C.[Cl-] | Not Active | Not Active
2 | CN(Cc1ccc(C(C)(C)C)cc1)Cc1cccc2ccccc12 [BUTENAFINE] | Not Active | Not Active
3 | Sc1ncnc2nc[nH]c12 [MERCAPTOPURINE ANHYDROUS] | Not Active | Not Active
4 | CC(C)(C)NCC(O)c1cc(Cl)c(N)c(Cl)c1 (centres undefined) [CLENBUTEROL] | Not Active | Not Active
5 | Nc1nc2c(ncn2COCCO)c(=O)[nH]1 [ACYCLOVIR] | Not Active | Not Active
6 | c1ccc2c(c1)c1cccc3ccc4cccc2c4c31 [BENZO[E]PYRENE] | Not Active | Not Active
7 | O=C(O)CCCc1ccc(N(CCCl)CCCl)cc1 [CHLORAMBUCIL] | Not Active | Not Active
8 | Cc1ccc(N(CC2=NCCN2)c2cccc(O)c2)cc1 [PHENTOLAMINE] | Not Active | Not Active
9 | CC(C)(Oc1ccc(Cl)cc1)C(=O)O [CLOFIBRIC ACID] | Not Active | Not Active

target: Adenosine receptor A2a (Homo sapiens, UniProt P29274); experiment: DRUGMATRIX: Adenosine A2A radioligand binding (ligand: […]); assay type: cell membranes, Membrane; settings: hek293; Not Active = under 50% inhibition at 10 µM
Sequence (P29274 whole entry): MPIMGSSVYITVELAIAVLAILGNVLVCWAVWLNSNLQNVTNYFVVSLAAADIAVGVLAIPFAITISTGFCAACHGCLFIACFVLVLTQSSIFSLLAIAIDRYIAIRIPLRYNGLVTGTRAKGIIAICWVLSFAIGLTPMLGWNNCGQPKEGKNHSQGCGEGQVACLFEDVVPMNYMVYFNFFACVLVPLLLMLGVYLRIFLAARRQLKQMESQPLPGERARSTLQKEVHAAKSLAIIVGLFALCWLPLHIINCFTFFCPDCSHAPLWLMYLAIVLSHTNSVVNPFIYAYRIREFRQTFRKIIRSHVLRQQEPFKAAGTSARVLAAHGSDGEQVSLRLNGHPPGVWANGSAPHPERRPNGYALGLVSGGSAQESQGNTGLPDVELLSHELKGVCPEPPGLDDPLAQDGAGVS

Row | Compound | IC50
10 | COc1cc2c3cc1Oc1cc(ccc1O)C[C@@H]1c4c(cc(OC)c(O)c4Oc4ccc(cc4)C[C@@H]3N(C)CC2)CC[N+]1(C)C.[Cl-] | Not Active
11 | CN(Cc1ccc(C(C)(C)C)cc1)Cc1cccc2ccccc12 [BUTENAFINE] | Not Active
12 | Sc1ncnc2nc[nH]c12 [MERCAPTOPURINE ANHYDROUS] | Not Active
13 | CC(C)(C)NCC(O)c1cc(Cl)c(N)c(Cl)c1 (centres undefined) [CLENBUTEROL] | Not Active
14 | Nc1nc2c(ncn2COCCO)c(=O)[nH]1 [ACYCLOVIR] | Not Active
15 | c1ccc2c(c1)c1cccc3ccc4cccc2c4c31 [BENZO[E]PYRENE] | Not Active
16 | O=C(O)CCCc1ccc(N(CCCl)CCCl)cc1 [CHLORAMBUCIL] | Not Active
17 | Cc1ccc(N(CC2=NCCN2)c2cccc(O)c2)cc1 [PHENTOLAMINE] | Not Active
18 | CC(C)(Oc1ccc(Cl)cc1)C(=O)O [CLOFIBRIC ACID] | Not Active

target: T1, Alpha-1B adrenergic receptor (Rattus norvegicus, UniProt P15823); experiment: DRUGMATRIX: Alpha-1B adrenergic receptor radioligand binding (ligand: prazosin); assay type: cell membranes, Wistar, Liver, Membrane; settings: Not Active = under 50% inhibition at 10 µM
T1 sequence (P15823 whole entry): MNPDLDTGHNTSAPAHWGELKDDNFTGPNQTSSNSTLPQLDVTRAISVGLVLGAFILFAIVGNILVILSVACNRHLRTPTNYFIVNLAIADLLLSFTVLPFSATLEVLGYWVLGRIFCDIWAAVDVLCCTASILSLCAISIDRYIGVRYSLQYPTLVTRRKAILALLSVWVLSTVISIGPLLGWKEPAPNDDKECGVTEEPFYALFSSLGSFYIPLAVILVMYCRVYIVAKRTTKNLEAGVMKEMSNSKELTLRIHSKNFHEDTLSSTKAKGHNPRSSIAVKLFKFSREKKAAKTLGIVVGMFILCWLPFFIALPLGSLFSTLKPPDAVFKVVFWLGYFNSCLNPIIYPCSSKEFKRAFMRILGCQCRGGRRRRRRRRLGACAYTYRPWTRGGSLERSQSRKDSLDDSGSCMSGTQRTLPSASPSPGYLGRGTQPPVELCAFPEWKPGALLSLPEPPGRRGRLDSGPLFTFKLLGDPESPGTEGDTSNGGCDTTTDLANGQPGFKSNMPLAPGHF

Row | Compound | IC50
19 | COc1cc2c3cc1Oc1cc(ccc1O)C[C@@H]1c4c(cc(OC)c(O)c4Oc4ccc(cc4)C[C@@H]3N(C)CC2)CC[N+]1(C)C.[Cl-] | Not Active
20 | CN(Cc1ccc(C(C)(C)C)cc1)Cc1cccc2ccccc12 [BUTENAFINE] | Not Active
21 | Sc1ncnc2nc[nH]c12 [MERCAPTOPURINE ANHYDROUS] | Not Active
22 | CC(C)(C)NCC(O)c1cc(Cl)c(N)c(Cl)c1 (centres undefined) [CLENBUTEROL] | Not Active
23 | Nc1nc2c(ncn2COCCO)c(=O)[nH]1 [ACYCLOVIR] | Not Active
24 | c1ccc2c(c1)c1cccc3ccc4cccc2c4c31 [BENZO[E]PYRENE] | Not Active
25 | O=C(O)CCCc1ccc(N(CCCl)CCCl)cc1 [CHLORAMBUCIL] | Not Active
26 | CC(C)(Oc1ccc(Cl)cc1)C(=O)O [CLOFIBRIC ACID] | Not Active

system: not listed separately; experiment: DRUGMATRIX: Phosphodiesterase PDE3 enzyme inhibition (substrate: [3H]cAMP + cAMP); assay type: tissue-based, Homo sapiens; settings: platelet; Not Active = under 50% inhibition at 10 µM

Row | Compound | IC50 | Ki
27 | COc1cc2c3cc1Oc1cc(ccc1O)C[C@@H]1c4c(cc(OC)c(O)c4Oc4ccc(cc4)C[C@@H]3N(C)CC2)CC[N+]1(C)C.[Cl-] | Not Active | Not Active
28 | CN(Cc1ccc(C(C)(C)C)cc1)Cc1cccc2ccccc12 [BUTENAFINE] | Not Active | Not Active
29 | Sc1ncnc2nc[nH]c12 [MERCAPTOPURINE ANHYDROUS] | Not Active | Not Active
30 | CC(C)(C)NCC(O)c1cc(Cl)c(N)c(Cl)c1 (centres undefined) [CLENBUTEROL] | Not Active | Not Active
31 | Nc1nc2c(ncn2COCCO)c(=O)[nH]1 [ACYCLOVIR] | Not Active | Not Active
32 | c1ccc2c(c1)c1cccc3ccc4cccc2c4c31 [BENZO[E]PYRENE] | Not Active | Not Active
33 | O=C(O)CCCc1ccc(N(CCCl)CCCl)cc1 [CHLORAMBUCIL] | Not Active | Not Active
34 | Cc1ccc(N(CC2=NCCN2)c2cccc(O)c2)cc1 [PHENTOLAMINE] | Not Active | Not Active
35 | CC(C)(Oc1ccc(Cl)cc1)C(=O)O [CLOFIBRIC ACID] | Not Active | Not Active

target: T2, Thromboxane-A synthase (Homo sapiens, UniProt P24557); experiment: biochemical; assay type: tissue-based, Platelet; settings: platelet;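 further: enzyme inhibition assay with PGH2 supplied as substrate; in other assays of this panel Not Active means under 50% inhibition at 10 µM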
T2 sequence (P24557 whole entry): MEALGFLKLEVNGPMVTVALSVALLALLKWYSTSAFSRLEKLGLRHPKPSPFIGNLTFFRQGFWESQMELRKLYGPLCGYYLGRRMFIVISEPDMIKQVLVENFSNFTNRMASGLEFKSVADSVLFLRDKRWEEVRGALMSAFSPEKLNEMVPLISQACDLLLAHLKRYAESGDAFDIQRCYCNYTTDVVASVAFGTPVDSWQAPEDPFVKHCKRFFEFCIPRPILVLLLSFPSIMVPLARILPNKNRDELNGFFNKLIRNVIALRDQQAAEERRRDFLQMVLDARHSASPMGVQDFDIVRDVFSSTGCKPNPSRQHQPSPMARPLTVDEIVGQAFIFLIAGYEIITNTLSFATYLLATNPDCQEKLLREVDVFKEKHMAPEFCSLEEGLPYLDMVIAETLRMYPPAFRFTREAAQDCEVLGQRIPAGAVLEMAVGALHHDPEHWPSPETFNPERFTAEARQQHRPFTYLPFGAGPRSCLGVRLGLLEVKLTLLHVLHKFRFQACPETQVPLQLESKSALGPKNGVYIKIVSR

Row | Compound | IC50
36 | COc1cc2c3cc1Oc1cc(ccc1O)C[C@@H]1c4c(cc(OC)c(O)c4Oc4ccc(cc4)C[C@@H]3N(C)CC2)CC[N+]1(C)C.[Cl-] | Not Active
37 | CN(Cc1ccc(C(C)(C)C)cc1)Cc1cccc2ccccc12 [BUTENAFINE] | Not Active
38 | Sc1ncnc2nc[nH]c12 [MERCAPTOPURINE ANHYDROUS] | Not Active
39 | CC(C)(C)NCC(O)c1cc(Cl)c(N)c(Cl)c1 (centres undefined) [CLENBUTEROL] | Not Active
40 | Nc1nc2c(ncn2COCCO)c(=O)[nH]1 [ACYCLOVIR] | Not Active
41 | c1ccc2c(c1)c1cccc3ccc4cccc2c4c31 [BENZO[E]PYRENE] | Not Active
42 | O=C(O)CCCc1ccc(N(CCCl)CCCl)cc1 [CHLORAMBUCIL] | Not Active
43 | Cc1ccc(N(CC2=NCCN2)c2cccc(O)c2)cc1 [PHENTOLAMINE] | Not Active
44 | CC(C)(Oc1ccc(Cl)cc1)C(=O)O [CLOFIBRIC ACID] | Not Active

target: Beta-2 adrenergic receptor (Homo sapiens, UniProt P07550); experiment: DRUGMATRIX: Adrenergic beta2 radioligand binding (ligand: [3H] CGP-12177); assay type: cell membranes, Membrane; settings: cho; Not Active = under 50% inhibition at 10 µM
Sequence (P07550 whole entry): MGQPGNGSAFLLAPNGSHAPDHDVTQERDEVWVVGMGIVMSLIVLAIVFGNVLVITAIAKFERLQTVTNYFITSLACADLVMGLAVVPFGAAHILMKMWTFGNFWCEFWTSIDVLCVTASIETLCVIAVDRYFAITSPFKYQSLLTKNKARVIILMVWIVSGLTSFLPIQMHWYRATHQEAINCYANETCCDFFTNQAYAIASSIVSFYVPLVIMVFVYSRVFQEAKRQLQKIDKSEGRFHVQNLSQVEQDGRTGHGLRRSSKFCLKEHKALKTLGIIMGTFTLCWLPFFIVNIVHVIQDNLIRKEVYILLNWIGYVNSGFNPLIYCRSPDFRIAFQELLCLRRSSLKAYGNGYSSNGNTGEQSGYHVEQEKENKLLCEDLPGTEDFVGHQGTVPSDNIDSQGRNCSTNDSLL

Row | Compound | IC50
45 | COc1cc2c3cc1Oc1cc(ccc1O)C[C@@H]1c4c(cc(OC)c(O)c4Oc4ccc(cc4)C[C@@H]3N(C)CC2)CC[N+]1(C)C.[Cl-] | Not Active
46 | CN(Cc1ccc(C(C)(C)C)cc1)Cc1cccc2ccccc12 [BUTENAFINE] | Not Active
47 | Sc1ncnc2nc[nH]c12 [MERCAPTOPURINE ANHYDROUS] | Not Active
48 | Nc1nc2c(ncn2COCCO)c(=O)[nH]1 [ACYCLOVIR] | Not Active
49 | c1ccc2c(c1)c1cccc3ccc4cccc2c4c31 [BENZO[E]PYRENE] | Not Active
50 | O=C(O)CCCc1ccc(N(CCCl)CCCl)cc1 [CHLORAMBUCIL] | Not Active
51 | Cc1ccc(N(CC2=NCCN2)c2cccc(O)c2)cc1 [PHENTOLAMINE] | Not Active
52 | CC(C)(Oc1ccc(Cl)cc1)C(=O)O [CLOFIBRIC ACID] | Not Active

target: T3, Alpha-2A adrenergic receptor (Homo sapiens, UniProt P08913); experiment: not given; assay type: cell membranes, Sf9, Membrane; settings: read-out: IC50; further: in other assays of this panel Not Active means under 50% inhibition at 10 µM
T3 sequence (P08913 whole entry): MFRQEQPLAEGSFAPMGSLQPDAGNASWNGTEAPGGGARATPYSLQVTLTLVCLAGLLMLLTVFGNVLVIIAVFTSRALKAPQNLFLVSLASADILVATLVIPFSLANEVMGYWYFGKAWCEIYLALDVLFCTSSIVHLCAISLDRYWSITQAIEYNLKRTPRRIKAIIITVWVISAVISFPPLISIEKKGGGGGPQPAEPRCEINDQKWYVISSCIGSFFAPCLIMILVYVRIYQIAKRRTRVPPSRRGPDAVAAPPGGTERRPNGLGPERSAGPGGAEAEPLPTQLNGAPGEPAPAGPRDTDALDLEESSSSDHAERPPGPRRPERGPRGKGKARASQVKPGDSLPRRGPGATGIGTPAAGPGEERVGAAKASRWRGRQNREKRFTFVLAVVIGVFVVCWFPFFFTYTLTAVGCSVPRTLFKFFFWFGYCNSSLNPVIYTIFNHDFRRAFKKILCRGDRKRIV

Row | Compound | pIC50
53 | CN(Cc1ccc(C(C)(C)C)cc1)Cc1cccc2ccccc12 [BUTENAFINE] | 5.44

same assay, conditions: read-out: Ki

Row | Compound | pKi
54 | CN(Cc1ccc(C(C)(C)C)cc1)Cc1cccc2ccccc12 [BUTENAFINE] | 5.86

same assay, conditions: sf9

Row | Compound | IC50
55 | COc1cc2c3cc1Oc1cc(ccc1O)C[C@@H]1c4c(cc(OC)c(O)c4Oc4ccc(cc4)C[C@@H]3N(C)CC2)CC[N+]1(C)C.[Cl-] | Not Active
56 | Sc1ncnc2nc[nH]c12 [MERCAPTOPURINE ANHYDROUS] | Not Active
57 | CC(C)(C)NCC(O)c1cc(Cl)c(N)c(Cl)c1 (centres undefined) [CLENBUTEROL] | Not Active
58 | Nc1nc2c(ncn2COCCO)c(=O)[nH]1 [ACYCLOVIR] | Not Active
59 | c1ccc2c(c1)c1cccc3ccc4cccc2c4c31 [BENZO[E]PYRENE] | Not Active
60 | O=C(O)CCCc1ccc(N(CCCl)CCCl)cc1 [CHLORAMBUCIL] | Not Active
61 | CC(C)(Oc1ccc(Cl)cc1)C(=O)O [CLOFIBRIC ACID] | Not Active
